Consider one compound from ChEMBL document CHEMBL4422664, “2-Benzoylbenzofuran derivatives possessing piperazine linker as anticancer agents” (Bioorg Med Chem Lett, 2019).

For assay [1], the system named is A549. Put plainly: Cytotoxicity against human A549 assessed as reduction in cell viability after 48 hrs by MTT assay. In kind it is functional, cell-based. The following applies: A549, 48 h. On the technique in general: Tetrazolium dyes change colour on reduction, which living cells bring about.
Assay [2] concerns HeLa. Put plainly: Cytotoxicity against human HeLa assessed as reduction in cell viability after 48 hrs by MTT assay. In kind it is functional, cell-based.
Assay [3] relates to SGC-7901. Kind of assay: Cytotoxicity against human SGC7901 assessed as reduction in cell viability after 48 hrs by MTT assay. In kind it is functional, cell-based. The following applies: SGC-7901, 48 h.
Assay [4] concerns HCT-116. Kind of assay: Cytotoxicity against human HCT116 assessed as reduction in cell viability after 48 hrs by MTT assay. It counts as functional, cell-based. The following applies: HCT-116, 48 h.
Assay [5] concerns MCF7. Kind of assay: Cytotoxicity against human MCF7 assessed as reduction in cell viability after 48 hrs by MTT assay. Particulars: MCF7, 48 h. It counts as functional, cell-based.
The subject of assay [6] is L02. Kind of assay: Cytotoxicity against human L02 assessed as reduction in cell viability after 48 hrs by MTT assay. The following applies: L02, 48 h. It counts as cell-based.
Assay [7] concerns A549. Put plainly: Induction of apoptosis in human A549 assessed as early apoptotic cells after 24 to 48 hrs by Annexin V/propidium iodide staining-based flow cytometric analysis. It counts as functional, cell-based. For orientation: In flow cytometry, cells or beads pass a laser one at a time.
Assay [8] deals with A549. Put plainly: Induction of apoptosis in human A549 assessed as early apoptotic cells at 1 uM after 24 to 48 hrs by Annexin V/propidium iodide staining-based flow cytometric analysis (reference value: 0.79%). In kind it is functional.
The test system of assay [9] is A549. Put plainly: Induction of apoptosis in human A549 assessed as late apoptotic cells at 1 uM after 24 to 48 hrs by Annexin V/propidium iodide staining-based flow cytometric analysis (reference value: 0.54%). In kind it is functional.
In assay [10] the test system is A549. Kind of assay: Induction of apoptosis in human A549 assessed as necrotic cells at 1 uM after 24 to 48 hrs by Annexin V/propidium iodide staining-based flow cytometric analysis (reference value: 0.16%). It counts as functional.
Assay [11] has as its system A549. Kind of assay: Induction of apoptosis in human A549 assessed as viable cells at 1 uM after 24 to 48 hrs by Annexin V/propidium iodide staining-based flow cytometric analysis (reference value: 98.5%). In kind it is functional. The following applies: read-out: Activity.
Assay [12] concerns A549. Kind of assay: Induction of apoptosis in human A549 assessed as early apoptotic cells at 2 uM after 24 to 48 hrs by Annexin V/propidium iodide staining-based flow cytometric analysis (reference value: 0.79%). It counts as functional.
For assay [13], the system named is A549. Put plainly: Induction of apoptosis in human A549 assessed as late apoptotic cells at 2 uM after 24 to 48 hrs by Annexin V/propidium iodide staining-based flow cytometric analysis (reference value: 0.54%). It counts as functional.
The subject of assay [14] is A549. Put plainly: Induction of apoptosis in human A549 assessed as necrotic cells at 2 uM after 24 to 48 hrs by Annexin V/propidium iodide staining-based flow cytometric analysis (reference value: 0.16%). It counts as functional.
For assay [15], the system named is A549. Kind of assay: Induction of apoptosis in human A549 assessed as viable cells at 2 uM after 24 to 48 hrs by Annexin V/propidium iodide staining-based flow cytometric analysis (reference value: 98.5%). It counts as functional. The following applies: read-out: Activity.

The term IC50 denotes the concentration that gives 50% inhibition. Turning to `CCN(CC)c1ccc2cc(C(=O)c3ccc(N4CCN(C(=O)CN5CCN(Cc6ccc(/C=C/C(=O)OC)cc6)CC5)CC4)cc3)oc2c1`, the IC50 is 2810 nM in [1]; 3.04 µM in [2]; 740 nM in [3]; 9.92 µM in assay [4]; 8.73 µM in [5]; above 100 µM in [6]. Moreover, the Activity result is “Dose-dependent effect” in [7]; 7.95% in assay [8]; 7.98% in assay [9]; 0.82% in assay [10]; 43.1% in [12]; 43.8% in assay [13]. In assay [14], the Activity is 3.87%. Moreover, the viability at 1 µM in assay [11] came to 83.3%. Also, in [15], the viability at 2 µM is 9.27%.
